Assay results reported in US9890171B2, “Aldosterone synthase inhibitors” (Boehringer Ingelheim International GmbH, priority 2014, dated 2018).

These compounds were tested against aldosterone synthase (CYP11B2) (Macaca fascicularis, UniProt A0A2K5UPL9) (assay: aldosterone synthase inhibition assay). Settings: cynomolgus adrenal gland mitochondria, 2 μM corticosterone, aldosterone quantified by mass spectrometry.
Assay type: biochemical, cynomolgus monkey
Description: The aldosterone synthase inhibition assay employs cynomolgus adrenal gland mitochondria as the source of aldosterone synthase (CYP11B2). Mitochondria are prepared from frozen cynomolgus monkey adrenal glands according to Method A described in by J. D. McGarry et al. (Biochem. J., 1983, 214, 21-28), with a final resuspension in the AT buffer described in R. Yamaguchi et al. (Cell Death and Differentiation, 2007, 14, 616-624), frozen as aliquots in liquid nitrogen and stored at −80° C. until use.
Assays are performed in 96-well format in a final volume of 60 μL/well, containing 100 mM potassium phosphate, pH 7.4, 1% (v/v) DMSO, and additionally, 2 μM of corticosterone and […] of mitochondrial protein. Reactions are started by the addition of NADPH to 1 mM and allowed to proceed for 60-90 minutes at 37° C. Reactions are terminated by the addition of […]. One hundred microliters are then transferred to a glass filter plate and centrifuged at 570×g for 5 minutes and the filtrate is collected. Reaction product aldosterone is quantified by mass spectrometry. To determine the assay blank value (0% activity), NADPH is omitted from some reactions.
Dose dependent inhibition is quantified by the inclusion of compound at various concentrations. Maximum activity (100%) is defined by reactions containing NADPH, but without compound. Activities at each concentration are expressed as a percentage of the maximum activity (y-axis) and plotted against concentration of compound (x-axis) and the concentration corresponding to 50% activity (IC50) determined using the XLFit curve-fitting program using a 4-parameter logistic model.

Chain of aldosterone synthase (CYP11B2) (A0A2K5UPL9 1-503): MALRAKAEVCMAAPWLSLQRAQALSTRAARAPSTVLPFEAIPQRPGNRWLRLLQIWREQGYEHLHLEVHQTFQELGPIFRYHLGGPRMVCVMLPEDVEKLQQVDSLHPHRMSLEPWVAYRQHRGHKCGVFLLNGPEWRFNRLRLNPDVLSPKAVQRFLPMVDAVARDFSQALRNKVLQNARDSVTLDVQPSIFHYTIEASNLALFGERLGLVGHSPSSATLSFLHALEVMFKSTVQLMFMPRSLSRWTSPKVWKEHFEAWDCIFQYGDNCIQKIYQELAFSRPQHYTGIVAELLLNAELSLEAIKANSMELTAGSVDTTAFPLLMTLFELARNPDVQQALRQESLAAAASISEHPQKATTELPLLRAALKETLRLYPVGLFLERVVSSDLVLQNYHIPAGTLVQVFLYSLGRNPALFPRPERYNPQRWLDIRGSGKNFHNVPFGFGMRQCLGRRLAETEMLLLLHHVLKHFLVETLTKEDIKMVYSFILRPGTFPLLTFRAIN

| SMILES | IC50 [nM] |
| --- | --- |
| O=C1CCc2cc(-c3cncc4c3COCC4O)ccc2N1 (single isomer, unassigned) [Compound 1, 6-(4-Hydroxy-3,4-dihydro-1H-pyrano[4,3-c]pyridin-8-yl)-3,4-dihydro-1H-quinolin-2-one] | 28.9 |
| O=C1CCc2cc(-c3cncc4c3COCC4O)ccc2N1 (single isomer, unassigned) [Compound 2, 6-(4-Hydroxy-3,4-dihydro-1H-pyrano[4,3-c]pyridin-8-yl)-3,4-dihydro-1H-quinolin-2-one] | 101 |
| OC1COCc2c(-c3ccccc3)cncc21 (single isomer, unassigned) [Compound 3, 8-Phenyl-3,4-dihydro-1H-pyrano[4,3-c]pyridin-4-ol] | 484 |
| N#Cc1ccc(-c2cncc3c2COCC3O)cc1 (single isomer, unassigned) [Compound 4, 4-(4-Hydroxy-3,4-dihydro-1H-pyrano[4,3-c]pyridin-8-yl)-benzonitrile] | 42 |
| OC1COCc2c(-c3ccccc3)cncc21 (single isomer, unassigned) [Compound 5, 8-Phenyl-3,4-dihydro-1H-pyrano[4,3-c]pyridin-4-ol] | 55 |
| N#Cc1ccc(-c2cncc3c2COCC3O)cc1 (single isomer, unassigned) [Compound 6, 4-(4-Hydroxy-3,4-dihydro-1H-pyrano[4,3-c]pyridin-8-yl)-benzonitrile] | 9.8 |
| N#Cc1ccc(-c2cncc3c2COCC3O)cc1Cl (single isomer, unassigned) [Compound 7, 2-Chloro-4-(4-hydroxy-3,4-dihydro-1H-pyrano[4,3-c]pyridin-8-yl)-benzonitrile] | 6.1 |
| CC(C)Oc1nc(-c2cncc3c2COCC3O)cs1 (single isomer, unassigned) [Compound 8, 8-(2-Isopropoxy-thiazol-4-yl)-3,4-dihydro-1H-pyrano[4,3-c]pyridin-4-ol] | 3700 |
| Cc1n[nH]c2ccc(-c3cncc4c3COCC4O)cc12 (single isomer, unassigned) [Compound 10, 8-(3-Methyl-1H-indazol-5-yl)-3,4-dihydro-1H-pyrano[4,3-c]pyridin-4-ol] | 115 |
| Cc1n[nH]c2cc(-c3cncc4c3COCC4O)ccc12 (single isomer, unassigned) [Compound 11, 8-(3-Methyl-1H-indazol-6-yl)-3,4-dihydro-1H-pyrano[4,3-c]pyridin-4-ol] | 690 |
| Cc1n[nH]c2ccc(-c3cncc4c3COCC4O)cc12 (single isomer, unassigned) [Compound 12, 8-(3-Methyl-1H-indazol-5-yl)-3,4-dihydro-1H-pyrano[4,3-c]pyridin-4-ol] | 21 |
| Cc1n[nH]c2cc(-c3cncc4c3COCC4O)ccc12 (single isomer, unassigned) [Compound 13, 8-(3-Methyl-1H-indazol-6-yl)-3,4-dihydro-1H-pyrano[4,3-c]pyridin-4-ol] | 81 |
| Cn1nnc2ccc(-c3cncc4c3COCC4O)cc21 (single isomer, unassigned) [Compound 14, 8-(3-Methyl-3H-benzotriazol-5-yl)-3,4-dihydro-1H-pyrano[4,3-c]pyridin-4-ol] | 15.7 |
| Cn1nc(F)c2ccc(-c3cncc4c3COCC4O)cc21 (single isomer, unassigned) [Compound 15, 8-(3-Fluoro-1-methyl-1H-indazol-6-yl)-3,4-dihydro-1H-pyrano[4,3-c]pyridin-4-ol] | 7.8 |
| Cn1ncc2ccc(-c3cncc4c3COC3(CC3)C4O)cc21 (single isomer, unassigned) [Compound 16, 8-(1-methylindazol-6-yl)spiro[1,4-dihydropyrano[4,3-c]pyridine-3,1′-cyclopropane]-4-ol] | 12.5 |
| Cn1ncc2ccc(-c3cncc4c3COC3(CC3)C4O)cc21 (single isomer, unassigned) [Compound 17, 8-(1-methylindazol-6-yl)spiro[1,4-dihydropyrano[4,3-c]pyridine-3,1′-cyclopropane]-4-ol] | 8 |
| Cn1ncc2cc(F)c(-c3cncc4c3COCC4O)cc21 (single isomer, unassigned) [Compound 18, 8-(5-Fluoro-1-methyl-1H-indazol-6-yl)-3,4-dihydro-1H-pyrano[4,3-c]pyridin-4-ol] | 20.1 |
| Cn1ncc2cc(F)c(-c3cncc4c3COCC4O)cc21 (single isomer, unassigned) [Compound 19, 8-(5-Fluoro-1-methyl-1H-indazol-6-yl)-3,4-dihydro-1H-pyrano[4,3-c]pyridin-4-ol] | 153 |
| OC1COCc2c(-c3ccc4scnc4c3)cncc21 (single isomer, unassigned) [Compound 20, 8-Benzothiazol-5-yl-3,4-dihydro-1H-pyrano[4,3-c]pyridin-4-ol] | 681 |

| SMILES | IC50 [nM] |
| --- | --- |
| OC1COCc2c(-c3ccc4cc[nH]c4c3)cncc21 (single isomer, unassigned) [Compound 21, 8-(1H-Indol-6-yl)-3,4-dihydro-1H-pyrano[4,3-c]pyridin-4-ol] | 195 |
| OC1COCc2c(-c3ccc4ncccc4c3)cncc21 (single isomer, unassigned) [Compound 22, 8-Quinolin-6-yl-3,4-dihydro-1H-pyrano[4,3-c]pyridin-4-ol] | 64.1 |
| Cn1ncc2cc(-c3cncc4c3COCC4O)ccc21 (single isomer, unassigned) [Compound 23, 8-(1-Methyl-1H-indazol-5-yl)-3,4-dihydro-1H-pyrano[4,3-c]pyridin-4-ol] | 195 |
| OC1COCc2c(-c3ccc4cn[nH]c4c3)cncc21 (single isomer, unassigned) [Compound 24, 8-(1H-Indazol-6-yl)-3,4-dihydro-1H-pyrano[4,3-c]pyridin-4-ol] | 480 |
| OC1COCc2c(-c3ccc4c(c3)OCCO4)cncc21 (single isomer, unassigned) [Compound 25, 8-(2,3-Dihydro-benzo[1,4]dioxin-6-yl)-3,4-dihydro-1H-pyrano[4,3-c]pyridin-4-ol] | 159 |
| Cc1nn(C)c(C)c1-c1cncc2c1COCC2O (single isomer, unassigned) [Compound 26, 8-(1,3,5-Trimethyl-1H-pyrazol-4-yl)-3,4-dihydro-1H-pyrano[4,3-c]pyridin-4-ol] | 1500 |
| OC1COCc2c(-c3cnc4[nH]ccc4c3)cncc21 (single isomer, unassigned) [Compound 27, 8-(1H-Pyrrolo[2,3-b]pyridin-5-yl)-3,4-dihydro-1H-pyrano[4,3-c]pyridin-4-ol] | 1300 |
| OC1COCc2c(-c3ccc4c(c3)OCCCO4)cncc21 (single isomer, unassigned) [Compound 28, 8-(3,4-Dihydro-2H-benzo[b][1,4]dioxepin-7-yl)-3,4-dihydro-1H-pyrano[4,3-c]pyridin-4-ol] | 333 |
| Cn1ncc2ccc(-c3cncc4c3COCC4O)cc21 (single isomer, unassigned) [Compound 29, 8-(1-Methyl-1H-indazol-6-yl)-3,4-dihydro-1H-pyrano[4,3-c]pyridin-4-ol] | 48.6 |
| OC1COCc2c(-c3ccc4cnccc4c3)cncc21 (single isomer, unassigned) [Compound 30, 8-Isoquinolin-6-yl-3,4-dihydro-1H-pyrano[4,3-c]pyridin-4-ol] | 54 |
| OC1COCc2c(-c3ccc4[nH]ccc4c3)cncc21 (single isomer, unassigned) [Compound 31, 8-(1H-Indol-5-yl)-3,4-dihydro-1H-pyrano[4,3-c]pyridin-4-ol] | 160 |
| Cn1cc(-c2cncc3c2COCC3O)cn1 (single isomer, unassigned) [Compound 32, 8-(1-Methyl-1H-pyrazol-4-yl)-3,4-dihydro-1H-pyrano[4,3-c]pyridin-4-ol] | 2700 |
| OC1COCc2c(-c3ccc4scnc4c3)cncc21 (single isomer, unassigned) [Compound 33, 8-Benzothiazol-5-yl-3,4-dihydro-1H-pyrano[4,3-c]pyridin-4-ol] | 40.5 |
| OC1COCc2c(-c3ccc4cc[nH]c4c3)cncc21 (single isomer, unassigned) [Compound 34, 8-(1H-Indol-6-yl)-3,4-dihydro-1H-pyrano[4,3-c]pyridin-4-ol] | 17.3 |
| OC1COCc2c(-c3ccc4ncccc4c3)cncc21 (single isomer, unassigned) [Compound 35, 8-Quinolin-6-yl-3,4-dihydro-1H-pyrano[4,3-c]pyridin-4-ol] | 9.7 |
| Cn1ncc2cc(-c3cncc4c3COCC4O)ccc21 (single isomer, unassigned) [Compound 36, 8-(1-Methyl-1H-indazol-5-yl)-3,4-dihydro-1H-pyrano[4,3-c]pyridin-4-ol] | 17.5 |
| OC1COCc2c(-c3ccc4cn[nH]c4c3)cncc21 (single isomer, unassigned) [Compound 37, 8-(1H-Indazol-6-yl)-3,4-dihydro-1H-pyrano[4,3-c]pyridin-4-ol] | 94.4 |
| OC1COCc2c(-c3ccc4c(c3)OCCO4)cncc21 (single isomer, unassigned) [Compound 38, 8-(2,3-Dihydro-benzo[1,4]dioxin-6-yl)-3,4-dihydro-1H-pyrano[4,3-c]pyridin-4-ol] | 12 |
